# According to patent US9476099B2 (TRUSTEES OF DARTMOUTH COLLEGE, priority 2012, dated 2016):
# Tested on: NT2/D1-R1 control and DNMT3B knockdown cells
# Assay: Genome-wide expression analysis with PAM clusters, control and DNMT3B knockdown cells (Tables 8-14)
# Details: sh-Ctrl + aza, NT2/D1-R1, decitabine 10 nM 3 days
smiles,measurement,setting,value
Nc1ncn([C@H]2C[C@H](O)[C@@H](CO)O2)c(=O)n1 [aza],"NCOR2 (NM_006312) gene expression, Mean",,493.089
same,"NDUFS4 (NM_002495) gene expression, Mean",,337.053
same,"NFE2L3 (NM_004289) gene expression, Mean",,222.942
same,"NGFRAP1 (NM_206917) gene expression, Mean",,1121.05
same,"NKX3-2 (NM_001189) gene expression, Mean",,409.938
same,"NM_014745 gene expression, Mean",,379.916
same,"NPAS1 (NM_002517) gene expression, Mean",,201.893
same,"NPTX2 (NM_002523) gene expression, Mean",,367.499
same,"ODZ3 (NM_0010804) gene expression, Mean",,189.247
same,"P4HB (NM_000918) gene expression, Mean",,1383.99
same,"PACSIN1 (NM_020804) gene expression, Mean",,216.839
same,"PCDH19 (NM_020766) gene expression, Mean",,151.727
same,"PCK2 (NM_0010180) gene expression, Mean",,116.02
same,"PDZD4 (NM_032512) gene expression, Mean",,182.348
same,"PEMT (NM_148172) gene expression, Mean",,595.006
same,"PEX14 (NM_004565) gene expression, Mean",,250.351
same,"PGM1 (NM_002633) gene expression, Mean",,1814.18
same,"PHC1 (NM_004426) gene expression, Mean",,951.052
same,"PIM2 (NM_006875) gene expression, Mean",,985.879
same,"PITPNC1 (NM_181671) gene expression, Mean",,180.093
same,"PNKP (NM_007254) gene expression, Mean",,424.886
same,"PPAP2A (NM_176895) gene expression, Mean",,348.062
same,"PPP1R1B (NM_181505) gene expression, Mean",,238.675
same,"PQLC3 (NM_152391) gene expression, Mean",,198.571
same,"PRSS8 (NM_002773) gene expression, Mean",,991.013
same,"PSAT1 (NM_021154) gene expression, Mean",,1824.54
same,"PTOV1 (NM_017432) gene expression, Mean",,720.62
same,"PTPLA (NM_014241) gene expression, Mean",,227.16
same,"RAB3IP (NM_175624) gene expression, Mean",,601.056
same,"RALY (NM_007367) gene expression, Mean",,833.663
same,"RASIP1 (NM_017805) gene expression, Mean",,185.874
same,"RASL11B (NM_023940) gene expression, Mean",,432.564
same,"RCN2 (NM_002902) gene expression, Mean",,501.026
same,"REEP6 (NM_138393) gene expression, Mean",,405.813
same,"RNF130 (NM_018434) gene expression, Mean",,174.702
same,"ROD1 (NM_005156) gene expression, Mean",,637.491
same,"RPS6KA2 (NM_0010069) gene expression, Mean",,141.693
same,"SAT1 (NM_002970) gene expression, Mean",,1895.82
same,"SCARB1 (NM_005505) gene expression, Mean",,433.694
same,"SEMA4B (NM_198925) gene expression, Mean",,288.428
same,"SEMA4D (NM_006378) gene expression, Mean",,315.221
same,"SEMA6B (NM_032108) gene expression, Mean",,218.592
same,"SH2B3 (NM_005475) gene expression, Mean",,424.579
same,"SLC3A2 (NM_0010132) gene expression, Mean",,898.448
same,"SLC8A2 (NM_015063) gene expression, Mean",,166.295
same,"SLC16A10 (NM_018593) gene expression, Mean",,159.709
same,"SLC22A23 (NM_021945) gene expression, Mean",,233.534
same,"SND1 (NM_014390) gene expression, Mean",,423.122
same,"SOX2 (NM_003106) gene expression, Mean",,271.23
same,"SPRY1 (NM_005841) gene expression, Mean",,248.973
same,"SPSB2 (NM_032641) gene expression, Mean",,474.363
same,"SRPX (NM_006307) gene expression, Mean",,222.901
same,"SURF6 (NM_006753) gene expression, Mean",,1293.98
same,"TBCD (NM_005993) gene expression, Mean",,256.961
same,"TCEA2 (NM_198723) gene expression, Mean",,483.559
same,"TCF7L1 (NM_031283) gene expression, Mean",,144.548
same,"TIMP4 (NM_003256) gene expression, Mean",,389.521
same,"TMC6 (NM_007267) gene expression, Mean",,346.392
same,"TMEM145 (NM_173633) gene expression, Mean",,166.627
same,"TPST2 (NM_0010085) gene expression, Mean",,370.953
same,"TRAPPC9 (NM_031466) gene expression, Mean",,104.733
same,"TSPAN9 (NM_006675) gene expression, Mean",,1313.95
same,"TUBB4 (NM_006087) gene expression, Mean",,253.587
same,"UBE2E2 (NM_152653) gene expression, Mean",,347.293
same,"UNC84B (NM_015374) gene expression, Mean",,465.92
same,"VCX2 (NM_016378) gene expression, Mean",,415.874
same,"VCX3A (NM_016379) gene expression, Mean",,1237.23
same,"VCX3B (NM_0010018) gene expression, Mean",,1368.4
same,"VSNL1 (NM_003385) gene expression, Mean",,249.848
same,"WDR8 (NM_017818) gene expression, Mean",,619.054
same,"XBP1 (NM_0010795) gene expression, Mean",,505.041
same,"XM_373896 gene expression, Mean",,276.846
same,"XM_926633 gene expression, Mean",,1782.67
same,"XM_932919 gene expression, Mean",,283.159
same,"XM_933796 gene expression, Mean",,270.602
same,"XM_943677 gene expression, Mean",,245.788
same,"ZBTB46 (NM_025224) gene expression, Mean",,207.588
same,"ZSWIM4 (NM_023072) gene expression, Mean",,393.591
same,"HIST1H2BK (NM_080593) gene expression, Mean",first HIST1H2BK entry (r906),1316.1
same,"TRPC4AP (NM_015638) gene expression, Mean",first TRPC4AP entry (r880),633.52
same,"HIST1H2BK (NM_080593) gene expression, Mean",second HIST1H2BK entry (r952),332.966
same,"TRPC4AP (NM_015638) gene expression, Mean",second TRPC4AP entry (r892),1094.19
